Reference: patent US20100041089A1, “IMPROVED METHOD FOR DETECTING CHEMICAL […]” (priority 2006, published 2010)

Tested on: yeast genes (expressed mRNA)
Test: DNA chip measurement of expressed mRNA of yeast genes after culture with a toxic chemical substance
Assay type: cell-based, Saccharomyces cerevisiae S288C
Method: Yeast (Saccharomyces cerevisiae S288C (a SUC2mal mel gap2 CUP1)) were cultured at 25° C. on YPD medium (yeast extract 1%, polypeptone 2%, glucose 2%). One of toxic chemical substances was added to the cell at logarithmic growth phase, and the cell was further cultured for two hours. Cell was cultured without any chemical substance in the same condition, and was used as a control. Concentrations of the chemical substances were defined to inhibit the growth of the yeast but not lead to death.
After the completion of cultivation, the culture was centrifuged to collect the cells. To the cells, sodium acetate buffer (50 mM sodium acetate, 10 mM EDTA, 1% SDS) was added, and the mixture was shaken at 65° C. for five minutes, followed by returning to room temperature, and obtaining the supernatant, which procedure was repeated two times. To the supernatant, ½ amount of a solution of phenol/chloroform (1:1) was added, and the mixture was centrifuged to give a supernatant, an equal amount of chloroform was added, and the mixture was centrifuged to give a supernatant. To the supernatant, an equal amount of isopropanol containing 0.3 M sodium acetate was added, and the mixture was allowed to stand at room temperature for 30 minutes, after which the mixture was centrifuged to give sediment of the whole RNAs. Seventy % ethanol was added to the sediment, and the mixture was again centrifuged to give sediment, which was then dried and dissolved in water. mRNA was isolated from the whole RNAs as followings. In view of the fact that a poly A chain is attached to the 3′ terminus of mRNA, a polynucleotide having a poly T structure which was immobilized on the surface of latex beads was used to trap the mRNA, and then the mRNA was washed and eluted with spine column (Oligotex-dT30<Super>mRNA Purification Kit, Takara). Reverse transcription of the mRNA was conducted with a reverse transcriptase (Super Script II Reverse Transcriptase; catalogue No. 18064-014, GibcoBRL) using fluorescence-labeled nucleotides to give cDNAs that were introduced with Cy3-dUTP or Cy5-dUTP during the reverse transcription.
The labeled cDNAs were dissolved in TE buffer (10 mM Tris-HCl/1 mM EDTA, pH 8.0), and the solution was dropped on the DNA chip containing the whole genes of yeast (DNA Chip Research Inc. Japan) so that the cDNAs were hybridized on the DNA chip at 65° C. for over 12 hours. The fluoresces intensity of the DNA chip was read with a scanner, and the ratio relative to the fluorescence intensity resulting from the absence of chemical substance was estimated as the following, which is shown in Tables 1 to 9.
In the Tables, “Intensity” indicated in the rightmost column is a value of the level of expressed mRNA of each gene in control cells as divided by the average level of the expressions of the whole genes. A gene of which mRNA level is lower in control, and is higher in cases of addition of chemical substance, is especially useful in the detection of toxic substances.
Here, when a ratio of an amount of mRNA expressed in the presence of the chemical substance to an amount of mRNA expressed in the absence of the chemical substance is two or more, then it is considered significant.

S=C([S-])NCCNC(=S)[S-].[Zn+2] [(11), Zinc N,N′-ethylenebis(dithiocarbamate)]
The level of expressed mRNA in the presence of chemical substance/The level of expressed mRNA in the absence of chemical substance (yeast gene YKL086W, cultured two hours with substance): 0.7 | The level of expressed mRNA in the presence of chemical substance/The level of expressed mRNA in the absence of chemical substance (yeast gene YKL151C, cultured two hours with substance): 2.3 | The level of expressed mRNA in the presence of chemical substance/The level of expressed mRNA in the absence of chemical substance (yeast gene YKL153W, cultured two hours with substance): 2.1 | The level of expressed mRNA in the presence of chemical substance/The level of expressed mRNA in the absence of chemical substance (yeast gene YKL195W, cultured two hours with substance): 1.0 | The level of expressed mRNA in the presence of chemical substance/The level of expressed mRNA in the absence of chemical substance (yeast gene YKR076W): 18.6 | The level of expressed mRNA in the presence of chemical substance/The level of expressed mRNA in the absence of chemical substance (yeast gene YKR091W, cultured two hours with substance): 1.1 | The level of expressed mRNA in the presence of chemical substance/The level of expressed mRNA in the absence of chemical substance (yeast gene YLL060C (detoxification protein gene)): 14.1 | The level of expressed mRNA in the presence of chemical substance/The level of expressed mRNA in the absence of chemical substance (yeast gene YLL060C (stress protein genes)): 14.1 | The level of expressed mRNA in the presence of chemical substance/The level of expressed mRNA in the absence of chemical substance (yeast gene YLR031W, cultured two hours with substance): 0.7 | The level of expressed mRNA in the presence of chemical substance/The level of expressed mRNA in the absence of chemical substance (yeast gene YLR054C, cultured two hours with substance): 0.7 | The level of expressed mRNA in the presence of chemical substance/The level of expressed mRNA in the absence of chemical substance (yeast gene YLR142W): 3.8 | The level of expressed mRNA in the presence of chemical substance/The level of expressed mRNA in the absence of chemical substance (yeast gene YLR149C, cultured two hours with substance): 2.8 | The level of expressed mRNA in the presence of chemical substance/The level of expressed mRNA in the absence of chemical substance (yeast gene YLR152C, cultured two hours with substance): 3.6 | The level of expressed mRNA in the presence of chemical substance/The level of expressed mRNA in the absence of chemical substance (yeast gene YLR194C, cultured two hours with substance): 1.4 | The level of expressed mRNA in the presence of chemical substance/The level of expressed mRNA in the absence of chemical substance (yeast gene YLR205C, cultured two hours with substance): 0.4 | The level of expressed mRNA in the presence of chemical substance/The level of expressed mRNA in the absence of chemical substance (yeast gene YLR297W, cultured two hours with substance): 3.5 | The level of expressed mRNA in the presence of chemical substance/The level of expressed mRNA in the absence of chemical substance (yeast gene YLR324W, cultured two hours with substance): 0.9 | The level of expressed mRNA in the presence of chemical substance/The level of expressed mRNA in the absence of chemical substance (yeast gene YLR346C, cultured two hours with substance): 0.5 | The level of expressed mRNA in the presence of chemical substance/The level of expressed mRNA in the absence of chemical substance (yeast gene YLR350W, cultured two hours with substance): 0.9 | The level of expressed mRNA in the presence of chemical substance/The level of expressed mRNA in the absence of chemical substance (yeast gene YLR387C, cultured two hours with substance): 0.9 | The level of expressed mRNA in the presence of chemical substance/The level of expressed mRNA in the absence of chemical substance (yeast gene YLR460C, cultured two hours with substance): 14.3 | The level of expressed mRNA in the presence of chemical substance/The level of expressed mRNA in the absence of chemical substance (yeast gene YML117W, cultured two hours with substance): 0.8 | The level of expressed mRNA in the presence of chemical substance/The level of expressed mRNA in the absence of chemical substance (yeast gene YML131W): 14.4 | The level of expressed mRNA in the presence of chemical substance/The level of expressed mRNA in the absence of chemical substance (yeast gene YMR009W, cultured two hours with substance): 2.1 | The level of expressed mRNA in the presence of chemical substance/The level of expressed mRNA in the absence of chemical substance (yeast gene YMR067C, cultured two hours with substance): 1.1 | The level of expressed mRNA in the presence of chemical substance/The level of expressed mRNA in the absence of chemical substance (yeast gene YMR090W, cultured two hours with substance): 8.8 | The level of expressed mRNA in the presence of chemical substance/The level of expressed mRNA in the absence of chemical substance (yeast gene YMR095C, cultured two hours with substance): 2.1 | The level of expressed mRNA in the presence of chemical substance/The level of expressed mRNA in the absence of chemical substance (yeast gene YMR097C, cultured two hours with substance): 1.5 | The level of expressed mRNA in the presence of chemical substance/The level of expressed mRNA in the absence of chemical substance (yeast gene YMR102C, cultured two hours with substance): 1.5 | The level of expressed mRNA in the presence of chemical substance/The level of expressed mRNA in the absence of chemical substance (yeast gene YMR107W, cultured two hours with substance): 3.0 | The level of expressed mRNA in the presence of chemical substance/The level of expressed mRNA in the absence of chemical substance (yeast gene YMR140W, cultured two hours with substance): 0.7 | The level of expressed mRNA in the presence of chemical substance/The level of expressed mRNA in the absence of chemical substance (yeast gene YMR180C, cultured two hours with substance): 0.7 | The level of expressed mRNA in the presence of chemical substance/The level of expressed mRNA in the absence of chemical substance (yeast gene YMR184W, cultured two hours with substance): 1.5 | The level of expressed mRNA in the presence of chemical substance/The level of expressed mRNA in the absence of chemical substance (yeast gene YMR191W, cultured two hours with substance): 2.3 | The level of expressed mRNA in the presence of chemical substance/The level of expressed mRNA in the absence of chemical substance (yeast gene YMR195W, cultured two hours with substance): 1.1 | The level of expressed mRNA in the presence of chemical substance/The level of expressed mRNA in the absence of chemical substance (yeast gene YMR295C, cultured two hours with substance): 1.2 | The level of expressed mRNA in the presence of chemical substance/The level of expressed mRNA in the absence of chemical substance (yeast gene YMR316W, cultured two hours with substance): 1.5 | The level of expressed mRNA in the presence of chemical substance/The level of expressed mRNA in the absence of chemical substance (yeast gene YNL044W, cultured two hours with substance): 1.1 | The level of expressed mRNA in the presence of chemical substance/The level of expressed mRNA in the absence of chemical substance (yeast gene YNL074C, cultured two hours with substance): 1.3 | The level of expressed mRNA in the presence of chemical substance/The level of expressed mRNA in the absence of chemical substance (yeast gene YNL092W, cultured two hours with substance): 0.7
